Measurements taken from patent US9797907B2, “Isolation, detection, diagnosis and/or characterization of circulating Trop-2-positive cancer cells” (Immunomedics, Inc., priority 2015, dated 2017).
Where “and” joins values, the source holds several entries; their conditions need not be identical. Equal values may be shown once.

Legend:
[1] = In vivo animal studies of SN-38 release from conjugate
[2] = Clinical pharmacokinetics of IMMU-132 in serum (ELISA, HPLC of SN-38); type: in vivo, human
Description: Two ELISA methods were used to measure the clearance of the IgG (capture with anti-hRS7 idiotype antibody) and the intact conjugate (capture with anti-SN-38 IgG/probe with anti-hRS7 idiotype antibody). SN-38 was measured by HPLC.

[3] = test system: stage IIIB NSCLC (squamous cell carcinoma); assay: Example 10: treatment of NSCLC patient after detection of Trop-2+ CTCs; type: in vivo, human; conditions: person
Description: A […]® system and Circulating Tumor Cell Kit are obtained Veridex LLC (Raritan, N.J.). A 7.5 ml blood sample is collected from a person with suspected NSCLC and stored in a CellSave tube (Veridex LLC). The anti-Trop-2 hRS7 antibody is substituted for the anti-EpCAM antibody provided with the […]® kit. The blood sample is mixed with magnetic nanoparticles conjugated to anti-Trop-2 antibody. Cells are stained with fluorescently labeled anti-CD45 and anti-CK antibodies and cell nuclei are fluorescently labeled with DAPI nuclear dye. A strong magnetic field is generated in the […]® system and used to separate cells bound to the magnetic nanoparticles, which are then analyzed by FISH to determine Trop-2 copy number, as described in Example 7 above.
Initial treatment of caboplatin/etoposide (3 mo) in concert with 7000 cGy XRT results in a response lasting 10 mo. The patient is then started on Tarceva maintenance therapy, which they continue until they were considered for IMMU-132 (hRS7-CL2A-SN-38) trial, in addition to undergoing a lumbar laminectomy. They receive the first dose of IMMU-132 after 5 months of Tarceva, presenting at the time with a 5.6-cm lesion in the right lung with abundant pleural effusion.

[4] = test system: Capan-1 human pancreatic tumor xenografts; assay: SN-38 delivery to tumor in nude mice bearing Capan-1 xenografts; type: in vivo
From the text: The present Example reports results from a phase I clinical trial and ongoing phase II extension with IMMU-132 (sacituzumab govitecan), an antibody-drug conjugate (ADC) of the internalizing, humanized, hRS7 anti-Trop-2 antibody conjugated by a pH-sensitive linker to SN-38 (mean drug-antibody ratio=7.6). Trop-2 is a type I transmembrane, calcium-transducing, protein expressed at high density (˜1×10^5), frequency, and specificity by many human carcinomas, with limited normal tissue expression.

[5] = human, in vivo
[6] = Phase I/II clinical trial of IMMU-132: related adverse events and dose reductions; type: in vivo, human
[7] = test system: patients with diverse metastatic cancers; assay: Phase I / phase II extension clinical trial of IMMU-132: best response, time to progression, case reports; type: in vivo, human
Description: In a 3+3 trial design, IMMU-132 was given on days 1 and 8 in repeated 21-day cycles, starting at 8 mg/kg/dose, then 12 and 18 mg/kg before dose-limiting neutropenia. To optimize cumulative treatment with minimal delays, phase II is focusing on 8 and 10 mg/kg (n=30 and 14, respectively). […] In the Phase I and the expansion phases, there are now 48 pts (excluding PDC) who are assessable by RECIST/CT for best response.
A total of 69 patients (including 25 patients in Phase I) with diverse metastatic cancers having a median of 3 prior therapies were reported. Eight patients had clinical progression and withdrew before CT assessment. Thirteen CT-assessable pancreatic cancer patients were separately reported.
A total of 48 patients with diverse cancers had at least 1 CT-assessment from which Best Response (not shown) and Time to Progression (TTP; not shown) were determined.

[8] = target: DDD of the RII form of PKA (Homo sapiens, UniProt P13861); conditions: Alto et al. 2003; read-out: binding constant for DDD; cited from earlier work
DDD of the RII form of PKA, sequence (P13861 2-45 limits assumed): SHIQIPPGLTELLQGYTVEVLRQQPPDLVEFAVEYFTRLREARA

[9] = irinotecan 125 mg/m^2 weekly×4, Q6W; cited from earlier work
[10] = target: RII isoform of PKA (Homo sapiens, UniProt P13861); conditions: Gold et al. 2006; cited from earlier work
RII isoform of PKA, sequence (P13861 whole entry, canonical isoform): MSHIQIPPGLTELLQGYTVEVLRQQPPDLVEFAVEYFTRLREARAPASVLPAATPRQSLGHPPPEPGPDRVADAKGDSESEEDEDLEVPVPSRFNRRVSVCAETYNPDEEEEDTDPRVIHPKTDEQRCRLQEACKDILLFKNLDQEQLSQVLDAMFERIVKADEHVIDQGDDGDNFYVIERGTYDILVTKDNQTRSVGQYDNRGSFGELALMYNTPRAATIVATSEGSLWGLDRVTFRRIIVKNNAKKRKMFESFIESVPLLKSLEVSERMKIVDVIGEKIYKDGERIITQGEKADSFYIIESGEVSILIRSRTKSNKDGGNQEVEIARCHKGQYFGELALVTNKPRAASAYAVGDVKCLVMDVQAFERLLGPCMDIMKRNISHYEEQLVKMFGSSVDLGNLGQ

[11] = starting dose 8 or 10 mg/kg, N = 123 patients
[12] = 48 pts (excluding PDC) assessable by RECIST/CT
[13] = all patients treated, 48 assessable
[14] = esophageal cancer, 4 assessable patients

IMMU-132
SN-38 released daily [1]: 50%
clearance of total IMMU-132 fraction (intact conjugate) vs IgG ([2]; ELISA): cleared more quickly than the IgG
SN-38 in the serum bound to the IgG ([2]; HPLC, unbound and total SN-38, non-glucoronidated form): > 95%
serum SN-38 concentration relative to SN-38 reported in patients given irinotecan ([2]; human, in vivo): ≤ 100 fold
time for conjugate to clear from the serum ([2]; patients): ≤ 3 days
concentrations of SN-38G ([2]; serum, HPLC): Low concentrations
Trop-2+ CTC number following treatment ([3]; NSCLC, periodic assays): substantial reduction
primary target lesion size at first CT ([3]; stage IIIB NSCLC, after 6th dose, 5.6-cm lesion at start): 3.2 cm
SN-38 delivered to tumor relative to maximally tolerated irinotecan therapy [4]: ≤ 136 fold
anti-hRS7 or anti-SN-38 antibodies [5]: No anti-hRS7 or anti-SN-38 antibodies were detected
antibody response to IMMU-132 [5]: no evidence of an antibody response
alopecia ([6]; human, in vivo): 40%
diarrhea ([6]; human, in vivo): 47%
diarrhea ≧G3 ([6]; human, in vivo): 9%
fatigue ([6]; human, in vivo): 55%
fatigue ≧G3 ([6]; human, in vivo): 9%
nausea ([6]; human, in vivo): 53%
nausea ≧G3 ([6]; human, in vivo): 0%
neutropenia G4 ([6]; human, in vivo): 4%
neutropenia ≧G3 ([6]; human, in vivo): 28%
vomiting ([6]; human, in vivo): 32%
vomiting ≧G3 ([6]; human, in vivo): 2%
patients provided with a dose reduction ([6]; human, in vivo, 8 mg/kg): 16%
patients provided with a dose reduction ([6]; human, in vivo, 10 mg/kg): 15%
patients provided with a dose reduction ([6]; human, in vivo, 12 mg/kg): 67%
patients provided with a dose reduction ([6]; human, in vivo, 18 mg/kg): 100%
Urinary Tract Infection, Grade 3 [6, 11]: 1 (1%) patients (%)
Urinary Tract Infection, Grade 4 [6, 11]: 0 patients (%)
PDC patients with SD ([7]; 13 CT-assessable PDC pts): 62%
median time to progression (TTP) in PDC patients ([7]; 13 CT-assessable pancreatic cancer patients, 8 wks in last prior therapy): 12.7 wks and 11.9 wks
patients with disease response (total) [7, 12]: 79%
patients with partial response (PR) [7, 12]: 15%
TTP for the remaining 48 pts ([7]; 48 pts excluding PDC): ≥ 12.6 wks
total response [PR+SD] ([7]; CRC, 12/18): 67%
PD ([7]; CRC, 18 assessable patients): 6 patients
PR ([7]; CRC, 18 assessable patients): 1 patients
clinical benefit ratio (CR+PR+(SD≧4 mo)]) ([7]; EAC, 16 assessable patients): 44%
objective response ([7]; EAC, 16 assessable patients (2 patients)): 13%
disease control ([7]; EAC, 16 assessable patients (9 patients)): 56%
PD ([7]; NSCLC, 5 assessable patients): 1 patients
PR ([7]; NSCLC, 5 assessable patients): 1 patients
clinical benefit ratio (CR+PR+(SD≧4 mo)]) ([7]; NSCLC, 19 assessable patients): 59%
objective response ([7]; NSCLC, 19 assessable patients (6 patients)): 32%
disease control ([7]; NSCLC, 19 assessable patients (14 patients)): 74%
total response [PR+SD] ([7]; NSCLC, ⅘): 80%
total response [PR+SD] ([7]; SCLC, 2/4): 50%
PD ([7]; SCLC, 4 assessable patients): 2 patients
PR ([7]; SCLC, 4 assessable patients): 2 patients
clinical benefit ratio (CR+PR+(SD≧4 mo)]) ([7]; SCLC, 20 assessable patients): 55%
clinical benefit ratio (CR+PR+(SD≧6 mo)]) ([7]; SCLC, 20 assessable patients): 37%
objective response ([7]; SCLC, 20 assessable patients (6 patients)): 30%
disease control ([7]; SCLC, 20 assessable patients (11 patients)): 55%
total response [PR+SD] ([7]; TNBC, 6/8): 75%
PD (progressive disease) ([7]; TNBC, 8 assessable patients): 2 patients
PR (partial response) ([7]; TNBC, 8 assessable patients): 2 patients
clinical benefit ratio (CR+PR+(SD≧4 mo)]) ([7]; TNBC, 46 assessable patients): 63%
clinical benefit ratio (CR+PR+(SD≧6 mo)]) ([7]; TNBC, 46 assessable patients): 46%
objective response ([7]; TNBC, 46 assessable patients (12 patients)): 26%
disease control ([7]; TNBC, 46 assessable patients (34 patients)): 74%
total response [PR+SD] ([7]; all patients treated, 34/48): 71%
PD [7, 13]: 14 patients
PR [7, 13]: 7 patients
PD [7, 14]: 1 patients
PR [7, 14]: 1 patients
total response [PR+SD] ([7]; esophageal cancer, ¾): 75%
maximum reduction in target lesions ([7]; person with CRC, after 10 months of treatment): 65%
CEA after treatment ([7]; person with CRC, decrease from 781 ng/mL): 26.5 ng/mL
reduction in target lesions at first CT assessment ([7]; person with CRC, starting dose 8 mg/kg): 37%
reduction in target lesions ([7]; person with SCLC, 12 mg/kg reduced to 6.8 mg/kg, after two months): 38%
primary target lesion size at first CT ([7]; person, stage IIIB NSCLC, after 6th dose, 5.6 cm lesion at start): 3.2 cm

QIEYLAKQIVDNAIQQA [AKAP-IS]
Kd [8]: 0.4 nM

CCc1c2c(nc3ccc(OC(=O)N4CCC(N5CCCCC5)CC4)cc13)-c1cc3c(c(=O)n1C2)COC(=O)[C@]3(O)CC [irinotecan]
incidence of grade ¾ diarrhea [9]: 38%
incidence of neutropenia [9]: 31%
incidence of neutropenic fever/infection [9]: 8%

QIEYVAKQIVDYAIHQA [SuperAKAP-IS]
selectivity for the RII isoform of PKA compared with the RI isoform [10]: five order of magnitude higher selectivity

CC[C@@]1(O)C(=O)OCc2c1cc1n(c2=O)Cc2cc3c(CN(C)C)c(O)ccc3nc2-1 [topotecan, reference compound]
response to prior therapy ([7]; person with SCLC, therapy ended after 2 months): no response
